According to paper PMC6494957 (Frontiers in Microbiology, 2019):

Key:
[1] = tested on: Gram-negative control strains; assay: Checkerboard, summary over Gram-negative strains; type: cell-based
Experimental: Briefly, antimicrobial stock solutions for robenidine and PMBN were prepared at a concentration of 12.8 mg/ml in DMSO. […] A 1 μl aliquot of the first compound from each combination was dispensed along the abscissa (from row A to G) of the 96-well microplate, while the second compound was dispensed along the ordinate (from column 12 to column 3) using an electronic multichannel pipette followed by 89 μl of LB broth. Each well of the plate was inoculated with an aliquot of 10 μl bacterial suspension at a concentration of 1-5 × 10^6 colony forming units (CFU) per ml. Subsequently, the plate was incubated at 37°C for 24 h. The fractional inhibitory concentration index (FICI) described the results of the combinations, and was calculated utilizing the following formula:
DRI = MIC of drug alone/MIC of drug in combination

[2] = tested on: tested pathogens (canine otitis externa isolates); assay: MIC, summary over canine otitis externa pathogens; type: cell-based
Experimental: Luria Bertani (LB) broth (Oxoid, Australia) was applied for MIC testing in lieu of cation-adjusted Mueller-Hinton broth as robenidine has been previously shown to chelate calcium ions. Furthermore, a twofold serial dilution of robenidine was performed in 100% DMSO, with 1 μl dispensed to each well due to the hydrophobicity of the compound ([Abraham et al., 2016]). The MIC for ampicillin or gentamicin against each isolate was determined for each test to serve as an internal quality control. The MICs of isolates were determined by visual reading and using an EnSpire Multimode Plate Reader 2300 atA600nm. […] Each well of the plate was inoculated with an aliquot of 10 μl bacterial suspension at a concentration of 1-5 × 10^6 colony forming units (CFU) per ml. Subsequently, the plate was incubated at 37°C for 24 h. The fractional inhibitory concentration index (FICI) described the results of the combinations, and was calculated utilizing the following formula: […]

[3] = tested on: S. pneumoniae strains; set-up: method as in Abraham et al., 2016; Ogunniyi et al., 2017; settings: ref Abraham et al., 2016, Ogunniyi et al., 2017; cited from earlier work
[4] = tested on: HEK 293 cell line; assay: In vitro cytotoxicity, WST-1; type: cell-based; settings: Homo sapiens, HEK293, 10% FBS, read-out: IC50, single agent
Experimental: Cells were maintained in Dulbecco’s modified Eagle’s medium (DMEM) with 10% fetal bovine serum (FBS) and 1% PenStrep (100 U/mL Penicillin and 100 μg/mL Streptomycin) at 37°C with 5% CO2. Cells were serially passaged at ∼80% confluence ∼ every 4 days. Assays were performed in duplicate in 96 well plates seeded with ∼25,000 cells per well. […] Briefly, the antimicrobials were prepared by performing a twofold serial dilution at 100× of tested concentration in DMSO. Subsequently, a 1 μl aliquot of each concentration was transferred to a sterile 96-well plate containing fresh DMEM with either 10% FBS. After mixing four times, the media aliquots with different concentrations of antimicrobial were transferred to each well of the 96-well plate seeded with cells, using wells containing 1–2% DMSO only as control. To determine the effect of FBS on the cytotoxicity of each compound, DMEM with 40% FBS containing different concentrations of antimicrobial was prepared as described above. After 24 h of exposure, WST-1 reagent (Cell Proliferation Assay reagent, Roche) at a concentration of 10% was added to each well. Absorbance at A450 nm on a Multiskan Ascent 354 Spectrophotometer (Labsystems) was measured after 1 h of incubation. The IC50 value was determined for each compound against each cell line via non-linear regression (three parameters) using GraphPad Prism v6 software.

Row | SMILES | lowest robenidine concentration inhibiting growth ([1]; in combination with PMBN, Gram-negative ATCC strains of ESKAPE pathogens) [µg/mL] | DRIs of robenidine ([1]; in the presence of EDTA, Gram-negative control strains (Table 1)) | DRIs of robenidine ([1]; in the presence of PMBN, Gram-negative control strains (Table 2)) | MIC ([1]; in the presence of PMBN, Gram-negative pathogens, read-out: MIC of robenidine) [µg/mL] | DRIs of robenidine ([1]; in the presence of both EDTA and PMBN, all tested isolates (abstract)) | fold increase in susceptibility ([1]; robenidine in combination with PMBN, Gram-negative ATCC strains of ESKAPE pathogens) | MIC values ([2]; Gram-positive bacteria: S. pseudintermedius and beta-haemolytic streptococci) [µg/mL] | MIC90 of robenidine ([2]; in the presence of EDTA, tested pathogens) [µg/mL] | effective concentrations (MIC range) [3] [µg/mL] | IC50 [4] [mM]
1 | N=C(N/N=C/c1ccc(Cl)cc1)N/N=C/c1ccc(Cl)cc1 [ROB, robenidine] | ≥ 0.125 | 2- to 256 fold | 8- to 256 fold | 0.5 to 8 | 2- to 2048 fold | 4- to 256 fold | 1 to 16 | 0.5 to 4 | 2 to 8 | –
2 | O=C(O)CN(CCN(CC(=O)O)CC(=O)O)CC(=O)O [EDTA, ethylenediaminetetraacetic acid] | – | – | – | – | – | – | – | – | – | 3.4
